Values quoted from earlier work, collected in patent US20160228670A1, “SYSTEM FOR NITRIC OXIDE INHALATION” (ADVANCED […] (AIT) LTD., priority 2013, published 2016).
Where two headings read alike, the source gives them in different places.

## [N]=O [NO, nitric oxide]
NO concentration in air 1 ppm
  t1/2 of NO to NO2: 3500 min
NO concentration in air 10 ppm
  t1/2 of NO to NO2: 350 min
NO concentration in air 100 ppm
  t1/2 of NO to NO2: 35 min
NO concentration in air 1,000 ppm
  t1/2 of NO to NO2: 3.5 min
NO concentration in air 10,000 ppm
  t1/2 of NO to NO2: 0.35 min
NO concentration in air 20,000 ppm
  t1/2 of NO to NO2: 0.175 min
